Measured values taken from the Kinase Knowledgebase extract (Sharma et al. 2016).

target: CDK2 (human) (UniProt P24941); test: Cell-Based Assay; conditions: a2780

SMILES | IC50
CNS(=O)(=O)c1ccc(-n2nc(C(N)=O)c3ccc4[nH]ncc4c32)cc1 | > 20 µM
NC(=O)c1nn(-c2ccc(Cl)cc2)c2c1CCc1[nH]ncc1-2 | > 20 µM
N#Cc1ccc(-n2nc(C(N)=O)c3c2-c2cn[nH]c2CC3)cc1 | > 20 µM
NC(=O)c1nn(-c2ccc(C(F)(F)F)cc2)c2c1CCc1[nH]ncc1-2 | > 20 µM
CNS(=O)(=O)c1ccc(-n2nc(C(N)=O)c3c2-c2cn[nH]c2CC3)cc1 | > 20 µM
CS(=O)(=O)c1ccc(-n2nc(C(N)=O)c3c2-c2cn[nH]c2CC3)cc1 | > 20 µM
NC(=O)c1nn(-c2ccc(OC(F)(F)F)cc2)c2c1CCc1[nH]ncc1-2 | > 20 µM
NC(=O)c1nn(Cc2ccccc2)c2c1ccc1[nH]ncc12 | 2.98 µM
NC(=O)c1nn(-c2ccc(-c3ncc[nH]3)cc2)c2c1CCc1[nH]ncc1-2 | > 20 µM
CN1CCN(S(=O)(=O)c2ccc(-n3nc(C(N)=O)c4ccc5[nH]ncc5c43)cc2)CC1 | > 20 µM
CC(=O)c1nn(-c2ccc(C)cc2)c2c1CCc1[nH]ncc1-2 | > 20 µM
COc1ccc(-n2nc(C(=O)O)c3ccc4[nH]ncc4c32)cc1 | > 20 µM

Further lines, results first:

IC50 | SMILES
> 20 µM | NC(=O)c1nn(-c2ccc(-c3ncc[nH]3)cc2)c2c1ccc1[nH]ncc12
10.2 µM | CCCCNS(=O)(=O)c1ccc(-n2nc(C(=O)NC)c3c2-c2cn[nH]c2CC3)cc1
2.9 µM | CCCCNS(=O)(=O)c1ccc(-n2nc(C(=O)NC)c3ccc4[nH]ncc4c32)cc1
1.65 µM | CC(=O)c1nn(-c2ccc(C)cc2)c2c1C(C)(C)Cc1[nH]ncc1-2
8.7 µM | C=CCONC(=O)c1nn(-c2ccc(S(=O)(=O)NCCC)cc2)c2c1ccc1[nH]ncc12

target: CDK2 (UniProt P24941); test: Enzyme Assay; conditions: not given

SMILES | IC50
CC(=O)c1nn(-c2ccc(C)cc2)c2c1C(C)(C)Cc1[nH]ncc1-2 | 0.087 µM
C=CCONC(=O)c1nn(-c2ccc(S(=O)(=O)NCCC)cc2)c2c1ccc1[nH]ncc12 | 0.2 µM
